“Also recorded” adds a separate entry of the source. Marks after values point to notes of the source that are not given here.
Tests used:
[1] = test system: rabbit articular chondrocytes; assay: MTT cell viability of IL-1β-treated articular chondrocytes; type: cell-based; conditions: IL-1β 1 ng/mL 20 h
Procedure: We assessed the viability of the chondrocytes by MTT assay to evaluate the cytotoxic effects of C8 on these cells. Chondrocytes were treated for 20 h with 1 ng/mL IL-1β alone or 1 h after the addition of C8 at 0.31 to 9.92 µM, which corresponded to 0.5- to 5-fold the IC50 of C8 on human GIIAPLA2 activity (Table 2). Three different culture medium compositions were used: DMEM alone, or supplemented with 0.1% BSA or 2% FCS. […] Thus, we evaluated the anti-inflammatory activity of C8 in culture conditions from 0.31 to 1.24 µM in DMEM alone and from 0.31 to 4.96 µM in DMEM supplemented with 0.1% BSA or 2% FCS.
(§1) Articular chondrocytes were isolated from 5-week-old Fauve de Bourgogne female rabbits (CPA, Orleans, France) and cultured at the first passage in conditions avoiding cell dedifferentiation as previously described. Cells were cultured at 37°C in 12-well plates in Ham's F-12 medium containing 10% FCS, 20 IU/mL penicillin, and 20 µg/mL streptomycin (all from Invitrogen) until nearly confluent. Then medium was replaced with DMEM (Invitrogen) containing 20 IU/mL penicillin, and 20 µg/mL streptomycin and, if necessary, 0.1% fatty acid free BSA (Sigma) or 2% FCS. At this time the C8 compound dissolved in DMSO (Sigma) was added to the medium (the amount of DMSO was kept at 1‰ (v/v) in all the wells). 1 h after the addition of C8, IL-1β (PeproTech) was added to the medium. Consequently, chondrocytes were incubated for 20 h with IL-1β and for 21 h with C8.
At 18 h after the addition of IL-1β, 3-[4,5-dimethylthiazol-2-yl]-2,5-diphenyl tetrazolium bromide (MTT; Sigma) was added to the cell culture medium at 0.5 mg/mL. Cells were incubated 2 more hours at 37°C. The medium was then removed, and DMSO was added to dissolve the formazan crystals. The absorbance of the resulting solution was spectrophotometrically measured at 570 and 690 nm (background). The value corresponding to absorbance570nm - absorbance690nm was directly proportional to the number and activity of the viable cells.

[2] = test system: IL-1β-stimulated PGE2 secretion in articular chondrocytes; assay: IL-1β-stimulated PGE2 secretion in articular chondrocytes (EIA); type: cell-based, rabbit; conditions: for C8 inhibitory effect (%inhibition) on PGE2 secretion: DMEM with 2% FCS, 20 h; for decrease of PGE2 production induced by IL-1β: IL-1β 20 h
Procedure: We tested the effect of C8 on the IL-1β-stimulated secretion of PGE2 in chondrocytes. PGE2 synthesis takes place mainly in response to cell activation by IL-1β, and its generation accounts for many of the actions induced by this cytokine. In vitro, IL-1β induces the expression of COX-2 by chondrocytes, which results in increased PGE2 production. PGE2 release thus represents a powerful IL-1β- and PLA2-dependent inflammatory marker in our cell model. Chondrocytes were treated for 20 h with IL-1β alone or 1 h after the addition of C8. […] In DMEM alone, at concentrations of 0.31-, 0.62-, 0.94-, and 1.24-µM, C8 decreased the production of PGE2 induced by IL-1β by 59-, 58-, 74-, and 80-%, respectively (Fig. 4A). In DMEM supplemented with 0.1% BSA, at concentrations of 0.31-, 0.62-, 0.94-, 1.24-, 2.48-, and 4.96-µM, C8 decreased the production of PGE2 induced by IL-1β by 31-, 30-, 45-, 43-, 81-, and 92-%, respectively (Fig. 4B). In DMEM supplemented with 2% FCS, at concentrations of 0.31-, 0.62-, 0.94-, 1.24-, 2.48-, and 4.96-µM, C8 decreased the production of PGE2 induced by IL-1β by 26-, 48-, 49-, 54-, 68-, and 68-%, respectively (Fig. 4C). […] The effect of C8 was then evaluated at the extreme concentrations (0.31- and 4.96-µM) in DMEM supplemented with 2% FCS and containing decreasing (1-, 0.5-, and 0.25-ng/mL) IL-1β concentrations (Table 3). The anti-IL-1β inhibitory effect of C8 at 0.31 µM increases when IL-1β concentration decreases. […] This is probably due to the fact that at 4.96 µM, the inhibitory effect of C8 on IL-1β-induced PGE2 production is maximal. […] Thus, C8, but not C1, decreases the IL-1β-stimulated PGE2 secretion in a dose-dependent manner in the three culture medium compositions used.
as §1
(§2) 20 h after the addition of IL-1β to the chondrocytes, culture media were collected, and aliquots were stored at −80°C until PGE2 and nitrite quantification. PGE2 concentration in culture media was determined by use of an enzyme immunoassay (EIA) kit (PGE2 EIA Kit-monoclonal; Cayman Chemical). Nitrite concentration was determined by a spectrophotometry method based on the Griess reaction. Briefly, 200 µL of culture medium or sodium nitrite (NaNO2, Merck) standard dilutions were mixed with 100 µL Griess reagent [0.5% (w/v) sulphanilic acid (Merck), 0.05% (w/v) N(1-naphtyl)ethylenediamine (Merck), 30% (v/v) acetic acid, 1.5 N HCl] and incubated for 10 min at 50°C. The absorbance was measured at 540 nm.

[3] = test system: IL-1β-stimulated NO secretion in articular chondrocytes; assay: IL-1β-stimulated NO (nitrite) secretion in articular chondrocytes (Griess); type: cell-based, rabbit
Procedure: We tested the effect of C8 on the IL-1β-stimulated secretion of NO in chondrocytes. NO is a mediator of immune and inflammatory responses. In vitro, IL-1β induces the expression of inducible NO synthase (iNOS) by chondrocytes, and consequently an increase in NO production. NO secretion, evaluated by nitrite concentration in the cell culture medium, represents a reliable IL-1β-dependent and PLA2-independent inflammatory marker in our cell model. Chondrocytes were treated for 20 h with IL-1β alone or 1 h after the addition of C8.
as §1, §2

O=c1[nH]c(Cc2ccc(OCCCCCOc3cc4ccccc4c4ccccc34)cc2)no1 [C8]
cytotoxic effects (MTT) ([1]; DMEM alone, C8 at 0.31 to 2.48 µM): no cytotoxic effects | cytotoxic effects (MTT) ([1]; DMEM with 0.1% BSA, C8 at 0.31 to 9.92 µM): no cytotoxic effects; also recorded: did not decrease cell viability | cytotoxic effects (MTT) ([1]; DMEM with 2% FCS, C8 at 0.31 to 9.92 µM): no cytotoxic effects; also recorded: did not decrease cell viability | C8 inhibitory effect (%inhibition) on PGE2 secretion ([2]; C8 at 0.31 µM, IL-1β 0.25 ng/mL): 67 %inhibition | C8 inhibitory effect (%inhibition) on PGE2 secretion ([2]; C8 at 0.31 µM, IL-1β 0.5 ng/mL): 60 ^* %inhibition | C8 inhibitory effect (%inhibition) on PGE2 secretion ([2]; C8 at 4.96 µM, IL-1β 0.25 ng/mL): 65 %inhibition | C8 inhibitory effect (%inhibition) on PGE2 secretion ([2]; C8 at 4.96 µM, IL-1β 0.5 ng/mL): 67 ^* %inhibition | C8 inhibitory effect (%inhibition) on PGE2 secretion ([2]; C8 at 4.96 µM, IL-1β 1 ng/mL): 68 ^*** %inhibition | decrease of PGE2 production induced by IL-1β ([2]; DMEM + 0.1% BSA, C8 0.31 µM): 31% | decrease of PGE2 production induced by IL-1β ([2]; DMEM + 0.1% BSA, C8 0.62 µM): 30% | decrease of PGE2 production induced by IL-1β ([2]; DMEM + 0.1% BSA, C8 0.94 µM): 45% | decrease of PGE2 production induced by IL-1β ([2]; DMEM + 0.1% BSA, C8 1.24 µM): 43% | decrease of PGE2 production induced by IL-1β ([2]; DMEM + 0.1% BSA, C8 2.48 µM): 81% | down-regulation of IL-1β-stimulated secretion of PGE2 ([2]; DMEM + 0.1% BSA, C8 4.96 µM): to the level of the control untreated condition | decrease of PGE2 production induced by IL-1β ([2]; DMEM + 0.1% BSA, C8 4.96 µM): 92% | decrease of PGE2 production induced by IL-1β ([2]; DMEM + 2% FCS, C8 0.31 µM): 26% | decrease of PGE2 production induced by IL-1β ([2]; DMEM + 2% FCS, C8 0.62 µM): 48% | decrease of PGE2 production induced by IL-1β ([2]; DMEM + 2% FCS, C8 0.94 µM): 49% | decrease of PGE2 production induced by IL-1β ([2]; DMEM + 2% FCS, C8 1.24 µM): 54% | decrease of PGE2 production induced by IL-1β ([2]; DMEM + 2% FCS, C8 2.48 µM): 68% | decrease of PGE2 production induced by IL-1β ([2]; DMEM + 2% FCS, C8 4.96 µM): 68% | down-regulation of IL-1β-stimulated secretion of PGE2 ([2]; DMEM + 2% FCS, C8 2.48 and 4.96 µM): to the level of the control untreated condition | decrease of PGE2 production induced by IL-1β ([2]; DMEM alone, C8 0.31 µM): 59% | decrease of PGE2 production induced by IL-1β ([2]; DMEM alone, C8 0.62 µM): 58% | decrease of PGE2 production induced by IL-1β ([2]; DMEM alone, C8 0.94 µM): 74% | decrease of PGE2 production induced by IL-1β ([2]; DMEM alone, C8 1.24 µM): 80% | inhibition of IL-1β-stimulated nitrite secretion ([3]; DMEM + 0.1% BSA, IL-1β 20 h): did not significantly inhibit | decrease of IL-1β-induced nitrite production ([3]; DMEM + 2% FCS, C8 1.24 µM): 17% | decrease of IL-1β-induced nitrite production ([3]; DMEM + 2% FCS, C8 2.48 µM): 19% | decrease of IL-1β-induced nitrite production ([3]; DMEM + 2% FCS, C8 4.96 µM): 21% | inhibition of IL-1β-stimulated nitrite secretion ([3]; DMEM + 2% FCS, C8 at 0.31, 0.62 and 0.94 µM): did not inhibit | inhibition of IL-1β-stimulated nitrite secretion ([3]; DMEM medium alone, IL-1β 20 h): did not significantly inhibit

— paper PMC2879362, “Design of Group IIA Secreted/Synovial Phospholipase A2 Inhibitors: An Oxadiazolone Derivative Suppresses Chondrocyte Prostaglandin E2 Secretion” (PLoS ONE, 2010)
